Measurements taken from ChEMBL document CHEMBL5360641, “4'-Ethynyl-2'-deoxy-2'-β-fluoro-2-fluoroadenosine: A Highly Potent and Orally Available Clinical Candidate for the Treatment of HIV-1 Infection” (J Med Chem, 2023).

Experiments:
[1] = system: Human immunodeficiency virus 1; experiment: Antiviral activity against HIV1 WAN infected in human PBMC assessed as inhibition of viral replication by measuring reduction in p24 antigen level incubated for 3 to 7 days by ELISA analysis; type: functional, organism-based; conditions: Human immunodeficiency virus 1, WAN
[2] = system: Human immunodeficiency virus 1; experiment: Antiviral activity against HIV1 VSV-G pseudotyped virus infected in human HEK293T cells assessed as inhibition of viral growth preincubated for 3 hrs followed by washout and further incubated with compound for 72 hrs by luciferase assay; type: functional, organism-based; conditions: Human immunodeficiency virus 1, HEK-293T
[3] = system: Human immunodeficiency virus 1; experiment: Antiviral activity against HIV1 TC-1 infected in human PBMC assessed as inhibition of viral replication by measuring reduction in p24 antigen level incubated for 3 to 7 days by ELISA analysis; type: functional, organism-based; conditions: Human immunodeficiency virus 1, TC-1, PBMC
[4] = system: Human immunodeficiency virus 1; experiment: Antiviral activity against HIV1 IIIB infected in human MT4 cells assessed as inhibition of viral replication incubated for 3 to 7 days by MTT analysis; type: functional, organism-based; conditions: Human immunodeficiency virus 1, IIIB
[5] = system: Human immunodeficiency virus 1; experiment: Antiviral activity against HIV1 IIIB infected in human C8166 cells assessed as inhibition of viral replication by measuring reduction in p24 antigen level incubated for 3 to 7 days by ELISA analysis; type: functional, organism-based; conditions: Human immunodeficiency virus 1, IIIB
[6] = system: Human immunodeficiency virus 1; experiment: Antiviral activity against HIV1 4755-5 infected in human C8166 cells assessed as inhibition of viral replication by measuring reduction in p24 antigen level incubated for 3 to 7 days by ELISA analysis; type: functional, organism-based; conditions: Human immunodeficiency virus 1, 4755-5, C8166
[7] = Selectivity index, ratio of CC50 for cytotoxicity against HEK293T cells assessed as reduction in cell viability by MTT assay to EC50 for antiviral activity against HIV1 VSV-G pseudotyped virus infected in human HEK293T cells assessed as inhibition of viral growth; type: toxicity, cell-based; conditions: read-out: Ratio CC50/EC50
[8] = Cytotoxicity against HEK293T cells assessed as reduction in cell viability by MTT assay; type: toxicity, cell-based, HEK-293T; conditions: human
[9] = system: Human immunodeficiency virus 1; experiment: Antiviral activity against HIV-1 harboring integrase G140S/Q148H double mutant infected in human TZM-bl cells assessed as inhibition of viral replication incubated for 3 to 7 days by luciferase assay; type: functional, organism-based; conditions: Human immunodeficiency virus 1, TZM-bl
[10] = system: Human immunodeficiency virus 1; experiment: Antiviral activity against HIV1 KIZ001 infected in human PBMC assessed as inhibition of viral replication by measuring reduction in p24 antigen level incubated for 3 to 7 days by ELISA analysis; type: functional, organism-based; conditions: Human immunodeficiency virus 1, KIZ001, PBMC
[11] = system: Human immunodeficiency virus 1; experiment: Antiviral activity against HIV1 IIIB infected in human C8166 cells assessed as inhibition of syncytia formation incubated for 3 to 7 days by syncytia assays; type: functional, organism-based; conditions: Human immunodeficiency virus 1, IIIB

Nc1ccn([C@@H]2CS[C@H](CO)O2)c(=O)n1 [LAMIVUDINE]
EC50 [1]: 538 nM | EC50 [2]: 170 nM | EC50 [3]: 210 nM | EC50 [4]: 167 nM | EC50 [5]: 853 nM | EC50 [6]: > 200000 nM | selectivity ratio [7]: > 588 | CC50 [8]: > 100000 nM | EC50 [9]: 138 nM | EC50 [10]: 73 nM | EC50 [11]: 199 nM
